Measurements: patent publication US20090023933A1, “METHOD FOR ISOLATING ACIDS FROM CHEMICAL REACTION MIXTURES BY USING 1-ALKYLIMIDAZOLES” (BASF Aktiengesellschaft, priority 2003, published 2009)

Experiment: Behavior of the 1-alkylimidazoles toward 30% strength NaCl solution (shaking funnel, phase separation, Karl-Fischer and GC analysis)
Settings: for Solubility of free base in NaCl solution in %: free 1-alkylimidazole, 5 g imidazole shaken with 5 g solution of 30 g NaCl in 100 g water, lower phase extracted, GC with internal standard; for Solubility of water in imidazole in %: water determination on upper (imidazole) phase by Karl-Fischer titration after shaking with NaCl solution
Description: A solution of 30 g of sodium chloride in 100 g of demineralized water was prepared. 5 g of this solution were admixed with 5 g of the imidazole derivative listed in a shaking funnel and the mixture was shaken vigorously. The phases were then separated and weighed.
The weight of the upper phase was recorded.
For the purposes of analysis, a water determination was carried out on the upper phase (by Karl-Fischer titration). The lower phase was, if present, separated off, admixed with 1N KOH solution and extracted twice with xylene. After drying over magnesium sulfate, an internal standard (heptadecane) was added and the amount of dissolved imidazole was backcalculated after GC analysis.

## CCCn1ccnc1 [nPr, n-propylimidazole]
  Solubility of free base in NaCl solution in %: 3%
  Solubility of water in imidazole in %: 30%

## CCCCn1ccnc1 [nBu, n-butylimidazole]
  Solubility of free base in NaCl solution in %: 0.2%
  Solubility of water in imidazole in %: 16%

## CCn1ccnc1 [Et (comp.)]
  Solubility of free base in NaCl solution in %: 100%
  Solubility of water in imidazole in %: ca. 50%

## Cn1ccnc1 [Me (comp.)]
  Solubility of free base in NaCl solution in %: 100%
  Solubility of water in imidazole in %: ca. 50%
